Data on 1 molecule can be found in patent publication US20220202841A1, “DERMATOLOGICAL FORMULATIONS FOR TREATMENT OF DERMATITIS” (priority 2020, published 2022).

In the experiment the test system is moderate to severe papular pustular rosacea with perioral dermatitis. As to the kind of experiment: Treatment of a subject with the formulation, clinical examination after 1 month. It is filed as in vivo, human. As to conditions: same subject, treatment history before the formulation, as reported at first visit. The text has this:
The lesions consisted of papules and pimples, was severe in severity, and had been present for months. […] The subject was having a bad “acne” flare up, and stated that their face was itchy and red. The subject had been treated for “acne” for a long time.
The subject was diagnosed with moderate to severe papular pustular rosacea with perioral dermatitis.
The subject was given the formulation of Example 1, and the subject administered it twice daily (AM and PM) and was seen again 1 month later, at which time their condition had improved. The subject's condition at this later examination was recorded in the images in FIGS. 2A to 2C.

Consider `CC1=C(/C=C/C(C)=C/C=C/C(C)=C/C(=O)O)C(C)(C)CCC1` [tretinoin], for which the “improvement of "acne" lesions with previously tried treatment” value was “no improvement”.
